Reference: paper PMC3684770 (Free Radical Biology & Medicine, 2013)
pEC50, pIC50: −log10 of the molar value. Where “and” joins values, the source holds several entries; their conditions need not be identical. Equal entries are not always repeated.

How the values were obtained:
[1] = tested on: Nrf2-ARE pathway; test: ARE reporter assay in CHO 4xARE-TK-GFP cells (Spectrum library hits)
[2] = tested on: NQO1 protein expression; test: Western blot NQO1 in wild-type MEFs; type: cell-based, mouse; conditions: EC90 concentration, 24 h
Description: Cells were isolated and lysed in a RIPA buffer containing protease inhibitor cocktail (Roche), quantified for protein content by Bradford assay, and loaded 30 μg per sample. Samples were run on a 12.5% acrylamide gel under reducing conditions with a prestained marker and transferred to polyvinylidene fluoride membrane and blocked in 5% milk. Mouse anti-alpha-tubulin, clone DM1A (Sigma), and rabbit anti-NQO1 (kind gift from Prof. John Hayes, University of Dundee) were used at 1 in 1000 dilution in Tris-buffered saline containing Tween. Polyclonal goat anti-mouse (Abcam-Ab97040) and polyclonal goat anti-rabbit (Dako Cat. No. P0448), horseradish peroxidase-conjugated secondary antibodies were used for detection of relevant primary antibodies. Bands were visualised by enhanced chemiluminescence reagents (Geneflow EZ-ECL kit). Relative band intensities were captured, using subsaturation, and quantified using a Gbox iChem XT digital imaging system (Syngene).

[3] = tested on: HO-1 and NQO1 gene expression; test: Q-RTPCR of Nrf2-regulated genes in C6 cells; type: cell-based, rat; conditions: C6, 24-h treatment at EC50 and EC90
Description: (§1) Nrf2 Target gene expression was determined using Q-RTPCR as described previously using the following primers: Ho-1 forward primer, cac ttc gtc aga ggc ctg cta; Ho-1 reverse primer, gcg gtg tct ggg atg agc ta; Nqo1 forward primer, cgc ctg agc cca gat att gt; Nqo1 reverse primer, act gca atg gga act gaa ata tca; GAPDH forward, gaa acc tgc caa gta tga tga cat; GAPDH reverse, ggt cct cag tgt agc cca aga t.

[4] = tested on: HO-1 and NQO1 gene expression; test: Q-RTPCR of Nrf2-regulated genes in primary mouse astrocytes; type: cell-based; conditions: 24-h treatment at EC50 and EC90
Description: as §1

[5] = tested on: NQO1 and HO-1 gene expression; test: Q-RTPCR in astrocytes from SOD1G93A transgenic mice; type: cell-based, mouse; conditions: G93A SOD1 astrocytes, 24-h pretreatment at EC90 (andrographolide also EC50)
Description: as §1

[6] = tested on: heme oxygenase 1 (HO-1); test: HO-1 immunofluorescence staining in primary mouse astrocytes; type: cell-based; conditions: EC90 concentration, 24 h
[7] = tested on: primary mouse astrocytes; test: Total glutathione assay in primary mouse astrocytes and conditioned media; type: cell-based; conditions: 24-h pretreatment
Description: Primary astrocytes were grown to confluency in 24-well plates and then treated with drug (or 0.05% DMSO vehicle) in phenol red-free DMEM containing 10% FBS and penicillin/streptomycin for 24 h. Conditioned medium was collected and astrocytes were then washed in ice-cold PBS before addition of 250 μl/well of sulphosalicylic acid (SSA, 5% (w/v)). Plates were frozen at −80 °C and thawed at 37 °C, twice, and then incubated at 4 °C for 15 min. The supernatant was removed and centrifuged at 13,000 g for 5 min. Conditioned medium samples were incubated at 80 °C for 15 min and then centrifuged at 13,000 g for 5 min. Samples were either used immediately or stored at −80 °C. Reaction mixture (150 μl/well; 100 mM potassium phosphate buffer, pH 7.0, 1 mM EDTA, 6 Units/ml glutathione reductase, 1.5 mg/ml 5,5′-dithiobis(2-nitrobenzoic acid)) was added to 10 μl of each sample or glutathione standard (0–50 μM reduced glutathione) in a 96-well plate and incubated at room temperature for 5 min before addition of 50 μl/well of NADPH solution (0.16 mg/ml). A412nm was measured every minute for 15 min and the total glutathione concentration (GSH + GSSG) was calculated from initial rates. Samples were tested in triplicate.

[8] = tested on: primary mouse motor neurons; test: Primary motor neuron/astrocyte coculture, menadione stress; type: cell-based; conditions: 24-h pretreatment, 6 h 10 µM menadione
Description: Mouse glial cultures were established based on published methods [[68,69]]. Primary spinal cord motor neurons (MNs) were cultured from E13.5 C57Bl/6 mouse embryos as described previously. Cocultures were allowed to establish for 2 weeks and neuroprotection assays performed. Cocultures were exposed to drug or vehicle for 24 h followed by a 6-h treatment with menadione (10 μM) to induce oxidative stress or with no stress to determine the effect of drug alone. Following stress treatment, coverslips were washed 3 times, fixed, and permeabilised, and MNs immunostained with SMI32 (Covance, UK). Total MNs were counted by fluorescence microscopy in a 1.5 cm^2 area per coverslip. A minimum of three repeats in triplicate were performed per condition. Both vehicle and drug treatments were counted with and without stress treatment, and results were analysed by two-way ANOVA using Bonferroni post tests.

[9] = tested on: P-glycoprotein; set-up: method as in PMID 19093450; conditions: cited from earlier work
[10] = tested on: C6 astrocyte cell line; test: C6 oxidative stress assay (serum withdrawal, DCF)
Description: (§3) Media were then replaced with serum-free, phenol-free media for 5 h.

[11] = tested on: NSC34 cells; test: NSC34 oxidative stress assay (serum withdrawal, DCF)
Description: as §3

[12] = tested on: 1321N1 astrocyte cell line; test: 1321N1 oxidative stress assay (serum withdrawal, DCF)
Description: as §3

[13] = tested on: Nrf2-ARE pathway; test: ARE reporter assay in C6 astrocyte cell line (C6-ARE); type: cell-based, rat
Excerpt: (§2) Chinese hamster ovary (CHO), NSC34 mouse motor neuronal cells […] The ARE-TK-GFP and TK-GFP reporter constructs were a kind gift from William E. Fahl McArdle Laboratory for Cancer Research, University of Wisconsin. […] The NSC34 cell lines stably expressing G93A mutant hSOD1 have been described previously. […] Mouse embryonic fibroblasts were generated and maintained as described previously.

[14] = tested on: Nrf2-ARE pathway; test: ARE reporter assay in NSC34 cell line (NSC34-ARE); type: cell-based, mouse
Excerpt: as §2

[15] = Pharmacokinetic analysis in C57Bl/6 mice; type: in vivo, mouse; conditions: C57Bl/6, mouse, brain / plasma; iv 1 mg/kg; read-out: brain uptake (AUCinfinity brain / AUCinfinity plasma)
Description: Pharmacokinetic studies were performed by Pharmidex (London, UK). […] All concentrations were calculated with reference to the relevant standard curve. An extraction buffer (EB) solution of acetonitrile with 0.1% formic acid (Fisher Scientific, HPLC grade) and 500 ng/ml of propranolol as the internal standard (IS) was used for in all extraction protocols.

[16] = tested on: HO-1 gene expression; test: Pharmacodynamic analysis: gene expression in spinal cord; type: in vivo, mouse; conditions: 5 mg/kg sc, 48 h postdosing
Excerpt: RNA was isolated using Qiagen RNeasy mini kit and Q-RTPCR performed on HO-1 and NQO-1 genes as described previously.

[17] = tested on: SOD1G93A transgenic mice; test: SOD1G93A transgenic mouse model of ALS; type: in vivo
Description: Pharmacology experiments in SOD1^G93A transgenic mice were conducted according to the published guidelines for studies in this model. […] The litters were split to enable an even distribution of sex and parentage between the two comparison groups and the groups randomly assigned to treatment or control. […] Behavioural assessment was carried out blinded to treatment group. Rotarod training was performed over 3 days with 2 trials per day. Subsequently, the rotarod test was performed once per week in the afternoon. On each day, mice were tested twice with a rest period in between tests. The best score was taken for analysis. […] Latency to fall (s) was recorded in seconds for each mouse. […] They were placed on the catwalk apparatus in complete darkness and the recording of gait patterns was performed in a separate room. Multiple runs were recorded for each mouse and three selected for analysis. Processing of gait data was performed using the dedicated software, with the assignment of limbs performed manually and subsequent automated calculation of gait parameters.
Specimens were incubated overnight in 20% sucrose and then embedded in OCT embedding matrix. Thirty five-micrometer-thick longitudinal sections were collected. […] Images were captured on an Incell 2000 and innervated (yellow) or denervated (red) end-plates were counted with a minimum of 1000 NMJs counted per animal.

[18] = tested on: primary fibroblasts from ALS patients; test: Oxidative stress assay in ALS patient and control fibroblasts; type: cell-based, human; conditions: 4 µM
Description: Fibroblasts were obtained from human controls (n=3) and ALS patients with I113T SOD1 mutations (n=3) and sporadic ALS patients (n=2). […] The cells were incubated at 37 °C/5% CO2 overnight. The following day the media were removed and the cells were washed with 200 µl 1XP BS. Phenol red-free DMEM/F12 media (Sigma D6434) was added in the presence of 10% serum/2 mM Gln (++), 10% serum/0 mM Gln (+−), or 0% serum/0 mM Gln (−−). Cells were incubated at 37 °C/5% CO2 for 5 h.
Carboxy-H2DCFDA fluorescence was normalised to live cell number (total EthD1 signal after freeze/thaw – EthD1 signal after assay) to compare between the different cell lines. Data were analysed by one-way ANOVA with Bonferroni post tests using GraphPad Prism
DMEM/F12 (50 µl) media were added in the presence of 10% serum/0 mM Gln (+−) and the cells were incubated at 37 °C and 5% CO2 for 5 h.
The data were tested for normality and analysed by one-way ANOVA using GraphPad Prism.

[19] = tested on: primary fibroblasts from ALS patients; test: Menadione-induced cell death in fibroblasts (MTT); type: cell-based, human; conditions: sporadic and I113T SOD1 ALS fibroblasts, 4 µM
Description: The method used was essentially as described previously. Briefly methylthiazolyldiphenyl-tetrazolium bromide (MTT) was added to the cells and a blank well to a final concentration 0.5 mg/ml and incubated at 37 °C for 1–3 h depending on the cell line used. Cells and reaction product were solubilised in 20% SDS/50% DMF for 1 h with shaking at room temperature before reading the absorbance at 595 nm.

[20] = minimum dose at which toxicity was observed

Structure (SMILES): C=C1CC[C@@H]2[C@](C)(CO)[C@H](O)CC[C@@]2(C)[C@@H]1C/C=C1/C(=O)OC[C@H]1O [Andrographolide]
- pEC50 ([1]; Cricetulus griseus): 6.13
- maximal fold induction ([1]; Cricetulus griseus, CHO, 24 h, read-out: Fold GFP induction): 3.61
- Toxic dose ([1]; lowest dose at which a reduction in GFP fluorescence was observed): 100 µM
- NQO1 protein expression, fold over vehicle [2]: 3.6 fold and > 3 fold
- HO-1 and NQO1 gene expression [3]: statistically significant changes in gene expression
- HO-1 and NQO1 gene expression [4]: statistically significant changes in gene expression
- transcripts for NQO1 and HO1 [5]: significant increase in transcripts
- HO-1 staining index [6]: significant increase in HO-1 staining
- total glutathione levels [7]: enhance glutathione production
- motor neuron numbers after menadione [8]: significant neuroprotective effects
- P-glycoprotein substrate [9]: substrate
- Emax ([10]; Rattus norvegicus, Astrocyte, 24 h, read-out: C6 oxidative stress assay Max reduction): 69%
- pIC50 ([10]; Rattus norvegicus, Astrocyte, read-out: C6 oxidative stress assay IC50): 6.72
- C6 oxidative stress assay Toxic dose [10, 20]: 10 µM
- Emax ([11]; Mus musculus, NSC-34, 24 h, read-out: NSC34 oxidative stress assay Max reduction): 0%
- NSC34 oxidative stress assay Toxic dose [11, 20]: 10 µM
- Emax ([12]; Homo sapiens, 1321-N1, 24 h, read-out: 1321N1 oxidative stress assay Max reduction): 35%
- pIC50 ([12]; Homo sapiens, 1321-N1, read-out: 1321N1 oxidative stress assay IC50): 6.30
- 1321N1 oxidative stress assay Toxic dose [12, 20]: 10 µM

Structure (SMILES): CN1CCc2cccc3c2[C@@H]1Cc1ccc(O)c(O)c1-3 [S[+]-apomorphine]
- potency of Nrf2-ARE activation compared with the R[–] enantiomer ([13]; C6 cells): equally potent
- pEC50 ([13]; Rattus norvegicus, C6 astrocyte cell line, concentration used in fibroblast assay, read-out: approximate EC50 concentration): ~5.40
- activation of Nrf2-ARE reporter [14]: shows some activation
- concentration showing activation of Nrf2-ARE reporter [14]: ≥ 1 µM
- HO-1 and NQO1 gene expression [3]: statistically significant changes in gene expression
- HO-1 and NQO1 gene expression [4]: statistically significant changes in gene expression
- transcripts for NQO1 and HO1 [5]: significant increase in transcripts
- total glutathione levels [7]: enhance glutathione production
- motor neuron numbers after menadione [8]: significant neuroprotective effects
- Kp [15]: 2.28
- HO-1 gene induction in whole spinal cord [16]: 3.5 fold
- time taken to reach a 20% decline in rotarod performance (median) ([17]; 5 mg/kg sc daily from Day 21, vehicle 6 weeks): 8 weeks
- oxidised glutathione levels in spinal cord ([17]; 60 days of age, vehicle 7.1): 4.2 µM
- gastrocnemius muscle innervation ([17]; 60 days of age, vehicle 28.1%): 39.5%
- survival ([17]; failure of the righting response within 10 s): did not observe a significant improvement in survival
- fore-limb and hind-limb stride length (gait analysis) ([17]; later stages of disease): significant delay in decline
- motor neuron numbers at end-stage ([17]; mouse, in vivo): did not observe a significant improvement
- reduction of oxidative stress (DCF) in control fibroblasts ([18]; control fibroblasts): nonsignificant
- basal oxidative stress (DCF) in patient fibroblasts ([18]; sporadic and I113T SOD1 ALS fibroblasts, 24 h): significant reduction in basal oxidative stress
- menadione-induced cell death (MTT) [19]: significantly attenuated cell death
